Experimental data reported in doi:10.1101/2025.01.28.635286v2 (bioRxiv, 2025).

Assays:
Format in all cases: cell-based, human
hCMEC/D3 monolayers = assay: Confocal microscopy of FITC-Aβ42 uptake in hCMEC/D3 monolayers; conditions: TNF-alpha 20 ng/mL
phospho-IRS (serine 307) = assay: Western blot of phospho-IRS in hCMEC/D3 monolayers; conditions: TNF-alpha 20 ng/mL, 24 h, immunoblot normalized to GAPDH, p<0.01
[1] = system: phospho-cofilin (serine 3); assay: Western blot of phospho-cofilin in hCMEC/D3 monolayers; conditions: TNF-alpha 20 ng/mL, 24 h, western blot normalized to GAPDH, p<0.05
phospho-dynamin = assay: Western blot of phospho-dynamin in hCMEC/D3 monolayers; conditions: TNF-alpha 20 ng/mL, 24 h, western blot normalized to GAPDH, p<0.05

## tumor necrosis factor-alpha [TNF-alpha]
hCMEC/D3 monolayers
  FITC-Aβ42 fluorescence by confocal microscopy in comparison to control cells: increased FITC-Aβ42 fluorescence
phospho-IRS (serine 307)
  increase in phospho-IRS expression (serine 307): 3 fold
[1]
  decrease of phospho-cofilin expression compared to control cells: approximately 2 fold
phospho-dynamin
  increase in phospho-dynamin levels compared to control cells: ~3 fold
